Measured values reported in EP3478687B1 (Daewoong Pharmaceutical Co., Ltd., priority 2016, dated 2018).

Legend:
[1] = molecular target: T1, Recombinant purified human JAK3 (Homo sapiens, UniProt P52333); assay: JAK3 kinase inhibitory activity, ADP-Glo kinase assay (Promega V9441); type: biochemical; details: ATP 5 uM, 4 ng JAK3 per reaction, 1 hour 30 °C, chemiluminescence
T1 construct: purchased Promega V9441
T1 sequence (P52333 1-1124): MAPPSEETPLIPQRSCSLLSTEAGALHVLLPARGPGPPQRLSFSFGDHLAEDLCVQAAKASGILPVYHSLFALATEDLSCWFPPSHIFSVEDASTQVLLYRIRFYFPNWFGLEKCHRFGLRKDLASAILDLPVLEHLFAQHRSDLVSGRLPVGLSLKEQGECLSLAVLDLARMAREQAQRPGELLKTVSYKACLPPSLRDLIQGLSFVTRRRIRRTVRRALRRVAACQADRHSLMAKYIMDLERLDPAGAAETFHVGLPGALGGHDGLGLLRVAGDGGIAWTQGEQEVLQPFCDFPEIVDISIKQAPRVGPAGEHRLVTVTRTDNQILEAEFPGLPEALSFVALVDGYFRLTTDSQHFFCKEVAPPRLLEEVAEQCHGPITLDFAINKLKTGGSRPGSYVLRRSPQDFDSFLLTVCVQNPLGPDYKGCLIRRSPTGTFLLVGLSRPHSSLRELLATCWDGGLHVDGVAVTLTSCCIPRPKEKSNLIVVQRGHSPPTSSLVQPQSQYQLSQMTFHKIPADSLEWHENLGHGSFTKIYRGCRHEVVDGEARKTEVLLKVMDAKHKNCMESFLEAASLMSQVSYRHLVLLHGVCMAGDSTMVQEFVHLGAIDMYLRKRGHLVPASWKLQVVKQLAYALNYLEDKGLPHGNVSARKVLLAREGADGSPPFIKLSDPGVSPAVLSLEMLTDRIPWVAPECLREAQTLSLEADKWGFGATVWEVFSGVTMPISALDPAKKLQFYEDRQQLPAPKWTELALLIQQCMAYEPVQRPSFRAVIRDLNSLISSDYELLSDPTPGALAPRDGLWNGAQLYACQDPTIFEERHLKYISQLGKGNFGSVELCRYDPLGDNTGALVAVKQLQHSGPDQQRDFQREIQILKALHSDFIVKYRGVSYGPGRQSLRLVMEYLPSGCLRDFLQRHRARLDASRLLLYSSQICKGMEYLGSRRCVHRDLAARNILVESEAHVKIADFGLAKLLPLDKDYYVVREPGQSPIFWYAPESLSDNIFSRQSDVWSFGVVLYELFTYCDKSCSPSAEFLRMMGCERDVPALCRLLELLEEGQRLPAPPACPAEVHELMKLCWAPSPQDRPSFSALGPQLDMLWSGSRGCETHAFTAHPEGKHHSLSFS
Outline: (§1)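 Recombinant human kinases in Tris pH 7.5 buffer with MgCl2, BSA and DTT (MnCl2 added for BTK), 4 ng JAK3 or 8 ng BTK per reaction. Poly(Glu4,Tyr1) 0.2 µg/µL with 5 µM (JAK3) or 10 µM (BTK) ATP, 1% DMSO, 1 h at 30 °C. ADP-Glo luminescence used to derive IC50.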

[2] = molecular target: T2, Recombinant purified human BTK (Homo sapiens, UniProt Q06187); assay: BTK kinase inhibitory activity, ADP-Glo kinase assay (Promega V9071); type: biochemical; details: ATP 10 uM, 8 ng BTK per reaction, 1 hour 30 °C, chemiluminescence
T2 construct: purchased Promega V9071
Outline: as §1

T2 sequence (Q06187 whole entry): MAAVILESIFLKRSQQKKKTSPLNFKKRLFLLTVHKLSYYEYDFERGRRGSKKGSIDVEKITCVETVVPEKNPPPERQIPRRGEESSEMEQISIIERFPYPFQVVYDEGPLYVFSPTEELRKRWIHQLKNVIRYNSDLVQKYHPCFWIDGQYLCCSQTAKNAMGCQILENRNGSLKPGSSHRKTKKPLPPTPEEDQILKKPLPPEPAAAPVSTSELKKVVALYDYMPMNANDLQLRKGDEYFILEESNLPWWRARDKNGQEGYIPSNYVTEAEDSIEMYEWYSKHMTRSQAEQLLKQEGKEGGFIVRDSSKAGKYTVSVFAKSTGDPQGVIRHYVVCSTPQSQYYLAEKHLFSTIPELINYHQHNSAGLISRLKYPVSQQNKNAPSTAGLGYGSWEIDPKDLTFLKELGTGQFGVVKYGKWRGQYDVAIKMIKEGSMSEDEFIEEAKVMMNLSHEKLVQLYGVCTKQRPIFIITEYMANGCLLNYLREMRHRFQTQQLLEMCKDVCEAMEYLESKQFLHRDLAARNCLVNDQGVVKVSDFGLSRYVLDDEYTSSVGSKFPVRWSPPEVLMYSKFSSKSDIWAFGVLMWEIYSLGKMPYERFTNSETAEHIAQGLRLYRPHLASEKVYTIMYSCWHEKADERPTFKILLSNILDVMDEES

| Compound | IC50 [1] [nM] | IC50 [2] [nM] |
| --- | --- | --- |
| C=CC(=O)N1CCC[C@@H](Nc2nc(Nc3cc(C)ns3)nc3[nH]cc(Cl)c23)C1 [Example 136, (R)-1-(3-((5-chloro-2-((3-methylisothiazol-5-yl)amino)-7H-pyrrolo[2,3-d]pyrimidin-4-yl)amino)piperidin-1-yl)prop-2-en-1-one] | 0.1 | 1.1 |
| C=CC(=O)N1CCC[C@@H](Nc2nc(Nc3cccnc3)nc3[nH]cc(Cl)c23)C1 [Example 137, (R)-1-(3-((5-chloro-2-(pyridin-3-ylamino)-7H-pyrrolo[2,3-d]pyrimidin-4-yl)amino)piperidin-1-yl)prop-2-en-1-one] | 2.6 | 19.6 |
| CCn1cc(Nc2nc(N[C@H]3CN(C(=O)CC#N)CC[C@H]3F)c3c(Cl)n[nH]c3n2)cn1 [Example 138] | > 80 | 92.7 |
| N#CCC(=O)N1CCC[C@@H](Nc2nc(Nc3cnn(C4CC4)c3)nc3[nH]nc(Cl)c23)C1 [Example 139, (R)-3-(3-((3-chloro-6-((1-cyclopropyl-1H-pyrazol-4-yl)amino)-1H-pyrazolo[3,4-d]pyrimidin-4-yl)amino)piperidin-1-yl)-3-oxopropanenitrile] | > 80 | 143 |
| C/C=C/C(=O)N1CCC[C@@H](Nc2nc(Nc3ccc(N4CCN(C)CC4)cc3)nc3[nH]cc(Cl)c23)C1 [Example 140, (R,E)-1-(3-((5-chloro-2-((4-(4-methylpiperazin-1-yl)phenyl)amino)-7H-pyrrolo [2,3-d]pyrimidin-4-yl)amino)piperidin-1-yl)but-2-en-1-one] | > 80 | 986 |
| CN1CCN(c2ccc(Nc3nc(N[C@@H]4CCCN(C(=O)C#CC5CC5)C4)c4c(Cl)c[nH]c4n3)cc2)CC1 [Example 141, (R)-1-(3-((5-chloro-2-((4-(4-methylpiperazin-1-yl)phenyl)amino)-7H-pyrrolo [2,3-d]pyrimidin-4-yl)amino)piperidin-1-yl)-3-cyclopropylprop-2-yn-1-one] | 38.5 | 306 |
| CCC#CC(=O)N1CCC[C@@H](Nc2nc(Nc3ccc(N4CCN(C)CC4)cc3)nc3[nH]cc(Cl)c23)C1 [Example 142, (R)-1-(3-((5-chloro-2-((4-(4-methylpiperazin-1-yl)phenyl)amino)-7H-pyrrolo[2,3-d]pyrimidin-4-yl)amino)piperidin-1-yl)pent-2-yn-1-one] | 22.4 | 210 |
| C=CC(=O)N1CCC[C@@H](Nc2nc(Nc3cnn(CC(F)(F)F)c3)nc3[nH]ncc23)C1 [Example 144, (R)-1-(3-((6-((1-(2,2,2-trifluoroethyl)-1H-pyrazol-4-yl)amino)-1H-pyrazolo[3,4-d]pyrimidin-4-yl)amino)piperidin-1-yl)prop-2-en-1-one] | 1.4 | 1.5 |
| C=CC(=O)N1CCC[C@@H](Nc2nc(Nc3cnn(CCN(CC)CC)c3)nc3[nH]ncc23)C1 [Example 145, (R)-1-(3-((6-((1-(2-(diethylamino)ethyl)-1H-pyrazol-4-yl)amino)-1H-pyrazolo[3,4-d]pyrimidin-4-yl)amino)piperidin-1-yl)prop-2-en-1-one] | 1.7 | 1.4 |
| C=CC(=O)N1CCC[C@@H](Nc2nc(Nc3cnoc3)nc3[nH]ncc23)C1 [Example 146, (R)-1-(3-((6-(isoxazol-4-ylamino)-1H-pyrazolo[3,4-d]pyrimidin-4-yl)amino)piperidin-1-yl)prop-2-en-1-one] | 7.4 | 1.4 |
| C=CC(=O)N1CCC[C@@H](Oc2nc(Nc3cnn(CC)c3)nc3[nH]nc(Cl)c23)C1 [Example 147] | 1.4 | 2.1 |
| C=CC(=O)N1CCC[C@@H](Oc2nc(Nc3cnn(C4CC4)c3)nc3[nH]cc(C#N)c23)C1 [Example 148, (R)-4-((1-acryloylpiperidin-3-yl)oxy)-2-((1-cyclopropyl-1H-pyrazol-4-yl)amino)-7H-pyrrolo[2,3-d]pyrimidine-5-carbonitrile] | 0.3 | 1.6 |

Now from value to molecule:

| IC50 [1] [nM] | IC50 [2] [nM] | Compound |
| --- | --- | --- |
| 0.2 | 1.6 | C=CC(=O)N1CCC[C@@H](Oc2nc(Nc3cnn(CC(F)F)c3)nc3[nH]cc(C#N)c23)C1 [Example 149, (R)-4-((1-acryloylpiperidin-3-yl)oxy)-2-((1-(2,2-difluoroethyl)-1H-pyrazol-4-yl)amino)-7H-pyrrolo[2,3-d]pyrimidine-5-carbonitrile] |
| 0.3 | 1.6 | C=CC(=O)N1CCC[C@@H](Oc2nc(Nc3cnn(CC)c3)nc3[nH]cc(C#N)c23)C1 [Example 150, (R)-4-((1-acryloylpiperidin-3-yl)oxy)-2-((1-ethyl-1H-pyrazol-4-yl)amino)-7H-pyrrolo[2,3-d]pyrimidine-5-carbonitrile] |
| 0.4 | 3 | C=CC(=O)N1CCC[C@@H](Oc2nc(Nc3cnn(CC)c3)nc3[nH]ccc23)C1 [Example 151, (R)-1-(3-((2-((1-ethyl-1H-pyrazol-4-yl)amino)-7H-pyrrolo[2,3-d]pyrimidin-4-yl)oay)piperidin-1-yl)prop-2-en-1-one] |
| 2 | 4.5 | C=CC(=O)N1CCC[C@@H](Oc2nc(Nc3ccc(N4CCOCC4)cc3)nc3[nH]ccc23)C1 [Example 152, (R)-1-(3-((2-((4-morpholinophenyl)amino)-7H-pyrrolo[2,3-d]pyrimidin-4-yl)oay)piperidin-1-yl)prop-2-en-1-one] |
| 1.6 | 2.2 | C=CC(=O)N1CCC[C@@H](Oc2nc(Nc3cnn(C4CC4)c3)nc3[nH]nc(Cl)c23)C1 [Example 153] |
| 54.2 | 2.5 | N#C/C(=C\C1CC1)C(=O)N1CCC[C@@H](Oc2nc(Nc3cnn(C4CC4)c3)nc3[nH]nc(Cl)c23)C1 [Example 154, (R,E)-2-(3-((3-chloro-6-((1-cyclopropyl-1H-pyrazol-4-yl)amino)-1H-pyrazolo[3,4-d]pyrimidin-4-yl)oxy)piperidine-1-carbonyl)-3-cyclopropylacrylonitrile] |
| 53.7 | 2.2 | CCn1cc(Nc2nc(O[C@@H]3CCCN(C(=O)/C(C#N)=C/C4CC4)C3)c3c(Cl)n[nH]c3n2)cn1 [Example 155, (R,E)-2-(3-((3-chloro-6-((1-ethyl-1H-pyrazol-4-yl)amino)-1H-pyrazolo[3,4-d]pyrimidin-4-yl)oxy)piperidine-1-carbonyl)-3-cyclopropylacrylonitrile] |
| 0.5 | 1.1 | CCn1cc(Nc2nc(O[C@@H]3CCCN(C(=O)/C(C#N)=C/C(C)C)C3)c3c(C#N)c[nH]c3n2)cn1 [Example 156, (R,E)-4-((1-(2-cyano-4-methylpent-2-enoyl)piperidin-3-yl)oxy)-2-((1-ethyl-1H-pyrazol-4-yl)amino)-7H-pyrrolo[2,3-d]pyrimidine-5-carbonitrile] |
| 0.6 | 1.4 | CCn1cc(Nc2nc(O[C@@H]3CCCN(C(=O)/C(C#N)=C/C4CC4)C3)c3c(C#N)c[nH]c3n2)cn1 [Example 157, (R,E)-4-((1-(2-cyano-3-cyclopropylacryloyl)piperidin-3-yl)oxy)-2-((1-ethyl-1H-pyrazol-4-yl)amino)-7H-pyrrolo[2,3-d]pyrimidine-5-carbonitrile] |
| 2.9 | 1.2 | CC(C)/C=C(\C#N)C(=O)N1CCC[C@@H](Oc2nc(Nc3cnn(C4CC4)c3)nc3[nH]nc(Cl)c23)C1 [Example 158, (R,E)-2-(3-((3-chloro-6-((1-cyclopropyl-1H-pyrazol-4-yl)amino)-1H-pyrazolo[3,4-d]pyrimidin-4-yl)oxy)piperidine-1-carbonyl)-4-methylpent-2-enenitrile] |
| 27.1 | 4.5 | C=CC(=O)N1CC[C@@H](C)[C@@H](N(C)c2nc(Nc3cnn(CC)c3)nc3[nH]nc(Cl)c23)C1 [Example 159] |
| 1.5 | 3.4 | CCn1cc(Nc2nc(N[C@H]3CN(C(=O)/C(C#N)=C/C(C)C)CC[C@H]3F)c3c(Cl)n[nH]c3n2)cn1 [Example 160, (E)-2-((3S,4R)-3-((3-chloro-6-((1-ethyl-1H-pyrazol-4-yl)amino)-1H-pyrazolo[3,4-d]pyrimidin-4-yl)amino)-4-fluoropiperidine-1-carbonyl)-4-methylpent-2-enenitrile] |
